In article PMC10787893, “Expression and characterization of the new antimicrobial peptide AP138L-arg26 anti Staphylococcus aureus” (Applied Microbiology and Biotechnology, 2024):
Values after ≈ are worked out from the molar mass of the structure shown. Counter-ions that a name gives are not always drawn. Like-named read-outs stand apart in the source and are kept apart here.

Key:
[1] = system: S. aureus CVCC 546; conditions: for MICa: MIC of peptide/antibiotic alone, three parallel experiments; for FIC: FIC = MICc/MICa
Experimental: The synergistic effects of AP138L-arg26 with different antibiotics were evaluated using a checkerboard assay. The synergistic effect was calculated using the FICI as follows: FICI = FIC of AP138L-arg26 + FIC of antibiotic; FIC = MICc/MICa, where MICc is the MIC of the peptide and antibiotic in combination, and MICa is the MIC of the peptide/antibiotic alone (Blier et al. [2010]). Three parallel experiments were performed for each group. The efficacy of combination therapy was defined as FICI ≤ 0.5, 0.5 < FICI ≤ 1, 1 < FICI ≤ 4, and FICI > 4 indicating synergy, addition, no difference, and antagonism, respectively.

[2] = system: Staphylococcus aureus CAAS-FRI-2023-01; experiment: MIC and MBC, broth microdilution; format: cell-based; conditions: Staphylococcus aureus
Experimental: (§1) To determine the MIC values of AP138L-arg26, we used the broth microdilution technique as previously described (Andrews. [2001]; Wiegand et al. [2008]). In brief, AP138L-arg26 peptide were diluted from 1280 to 2.5 µg/mL and added to a 96-cells plate with 10 µL per well. The bacteria in the logarithmic stage were diluted to 10^5 CFU/mL with 90 µL per well. […] The MBC method was also based on the CLSI 2021 guidelines.

[3] = system: Staphylococcus aureus ATCC 43300; experiment: MIC and MBC, broth microdilution; format: cell-based; conditions: Staphylococcus aureus, ATCC43300
Experimental: as §1

[4] = system: Streptococcus dysgalactiae CVCC 3938; experiment: MIC and MBC, broth microdilution; format: cell-based; conditions: Streptococcus dysgalactiae, CVCC3938
Experimental: as §1

[5] = system: Staphylococcus epidermidis ATCC 12228; experiment: MIC and MBC, broth microdilution; format: cell-based; conditions: Staphylococcus epidermidis, ATCC12228
Experimental: as §1

[6] = system: Staphylococcus epidermidis ATCC 35984; experiment: MIC and MBC, broth microdilution; format: cell-based; conditions: Staphylococcus epidermidis, ATCC35984
Experimental: as §1

[7] = system: Staphylococcus aureus ATCC 25923; experiment: MIC and MBC, broth microdilution; format: cell-based; conditions: Staphylococcus aureus, ATCC25923
Experimental: as §1

[8] = system: Streptococcus agalactiae CAU-FRI-2022-01; experiment: MIC and MBC, broth microdilution; format: cell-based; conditions: Streptococcus agalactiae, CAUFRI202201
Experimental: as §1

[9] = system: Streptococcus agalactiae ATCC 13813; experiment: MIC and MBC, broth microdilution; format: cell-based; conditions: Streptococcus agalactiae, ATCC13813
Experimental: as §1

[10] = system: Staphylococcus aureus E48; experiment: MIC and MBC, broth microdilution; format: cell-based; conditions: Staphylococcus aureus, E48
Experimental: as §1

[11] = system: Staphylococcus aureus CAAS-FRI-2023-02; experiment: MIC and MBC, broth microdilution; format: cell-based; conditions: Staphylococcus aureus
Experimental: as §1

[12] = system: Staphylococcus aureus CVCC 546; experiment: MIC and MBC, broth microdilution; format: cell-based; conditions: Staphylococcus aureus, CVCC546
Experimental: as §1

[13] = system: Streptococcus agalactiae CAU-FRI-2022-02; experiment: MIC and MBC, broth microdilution; format: cell-based; conditions: Streptococcus agalactiae, CAUFRI202202
Experimental: as §1

[14] = system: S. aureus ATCC 43300; experiment: Post-antibiotic effect (PAE) assay; format: cell-based, Staphylococcus aureus; conditions: PAE = T − C
Source text: The method of PAE of AP138L-arg26 against MRSA ATCC 43300 or S. aureus CVCC 546 was described previously (Wang et al. [2018]). The formula is PAE = T − C (T is the time required for the number of colonies in the sample treatment group to increase by tenfold, and C is the time required for the untreated group).

[15] = system: S. aureus CVCC 546; experiment: Growth curve of S. aureus; format: cell-based, Staphylococcus aureus; conditions: AP138L-arg26 8 µg/mL (2 × MIC), ceftiofur sodium 0.25 µg/mL (1/8 MIC), alone or combined; 1 × 10^5 CFU/mL
Experimental: Samples were taken during the logarithmic growth of S. aureus and diluted to 1 × 10^5 CFU/mL (Delpech et al. [2019]). Different concentrations of AP138L-arg26, ceftiofur sodium, or a combination of them with an equal volume of bacteria were added to a 96-well microplate. The growth curves were recorded using a fully automatic growth curve recording instrument.

[16] = 99.99% of bacteria killed, plated on MHA, read-out: MBC
[17] = broth microdilution, 10^5 CFU/mL, 37 °C, 18 h, read-out: MIC

SMILES: CN[C@H](CC(C)C)C(=O)N[C@H]1C(=O)N[C@@H](CC(N)=O)C(=O)N[C@H]2C(=O)N[C@H]3C(=O)N[C@H](C(=O)N[C@H](C(=O)O)c4cc(O)cc(O)c4-c4cc3ccc4O)[C@H](O)c3ccc(c(Cl)c3)Oc3cc2cc(c3O[C@@H]2O[C@H](CO)[C@@H](O)[C@H](O)[C@H]2O[C@H]2C[C@](C)(N)[C@H](O)[C@H](C)O2)Oc2ccc(cc2Cl)[C@H]1O [vancomycin, reference compound]
- MICa [1]: 1 µg/mL
- MBC [2, 16]: 2 µg/mL (≈ 1.38 µM)
- MIC [2, 17]: 1 µg/mL (≈ 0.69 µM)
- MBC [3, 16]: 1 µg/mL (≈ 0.69 µM)
- MIC [3, 17]: 1 µg/mL (≈ 0.69 µM)
- MBC [4, 16]: 2 µg/mL (≈ 1.38 µM)
- MIC [4, 17]: 2 µg/mL (≈ 1.38 µM)
- MBC [5, 16]: 4 µg/mL (≈ 2.76 µM)
- MIC [5, 17]: 2 µg/mL (≈ 1.38 µM)
- MBC [6, 16]: 4 µg/mL (≈ 2.76 µM)
- MIC [6, 17]: 2 µg/mL (≈ 1.38 µM)
- MBC [7, 16]: 2 µg/mL (≈ 1.38 µM)
- MIC [7, 17]: 1 µg/mL (≈ 0.69 µM)
- MBC [8, 16]: 8 µg/mL (≈ 5.52 µM)
- MIC [8, 17]: 2 µg/mL (≈ 1.38 µM)
- MBC [9, 16]: 4 µg/mL (≈ 2.76 µM)
- MIC [9, 17]: 2 µg/mL (≈ 1.38 µM)
- MBC [10, 16]: 8 µg/mL (≈ 5.52 µM)
- MIC [10, 17]: 1 µg/mL (≈ 0.69 µM)
- MBC [11, 16]: 8 µg/mL (≈ 5.52 µM)
- MIC [11, 17]: 2 µg/mL (≈ 1.38 µM)
- MBC [12, 16]: 1 µg/mL (≈ 0.69 µM)
- MIC [12, 17]: 1 µg/mL (≈ 0.69 µM)
- MBC [13, 16]: 4 µg/mL (≈ 2.76 µM)
- MIC [13, 17]: 2 µg/mL (≈ 1.38 µM)
- PAE ([14]; 1 × MIC): 0.27 h
- PAE ([14]; 2 × MIC): 0.45 h
- PAE ([14]; 4 × MIC): 1.18 h

SMILES: CC1(C)S[C@@H]2[C@H](NC(=O)[C@H](N)c3ccccc3)C(=O)N2[C@H]1C(=O)O [Ampicillin]
- FIC ([1]; combination AP138L-arg26-ampicillin): 0.0625
- MICc ([1]; in combination AP138L-arg26-ampicillin): 0.0078 µg/mL

SMILES: [H]/N=C(/N)N[C@H]1[C@H](O)[C@@H](O)[C@H](O[C@@H]2O[C@@H](C)[C@](O)(C=O)[C@H]2O[C@@H]2O[C@@H](CO)[C@H](O)[C@@H](O)[C@@H]2NC)[C@@H](N/C(N)=N\[H])[C@@H]1O [Streptomycin sulfate]
- FIC ([1]; combination AP138L-arg26-Streptomycin sulfate): 0.5
- MICa [1]: 1 µg/mL
- MICc ([1]; in combination AP138L-arg26-Streptomycin sulfate): 0.5 µg/mL

SMILES: CO/N=C(\C(=O)N[C@@H]1C(=O)N2C(C(=O)[O-])=C(CSC(=O)c3ccco3)CS[C@H]12)c1csc(N)n1.[Na+] [Ceftiofur sodium, ceftiofur sodium]
- FIC ([1]; combination AP138L-arg26-ceftiofur sodium): 0.25
- MICc ([1]; in combination AP138L-arg26-ceftiofur sodium): 0.25 µg/mL
- effect on the growth of S. aureus CVCC 546 [15]: little effect on the growth
